Data on 18 compounds can be found in patent US20260265238A1, “COMPOUNDS AND PHARMACEUTICAL COMPOSITIONS THAT DEGRADE SWI/SNF-RELATED MATRIX-ASSOCIATED ACTIN-DEPENDENT REGULATOR OF CHROMATIN SUBFAMILY A” (Plexium, Inc., priority 2023, published 2026).

Each structure is given as a SMILES string.

For test [1], the target named is T1, SMARCA2-HiBiT HeLa cells (protein which is expressed from the SMARCA2 gene) (Homo sapiens, UniProt P51531).
T1 construct: protein which is expressed from the SMARCA2 and SMARCA4 genes; host or cells: HeLa (SMARCA2-HiBiT engineered line)
The experiment in a line: SMARCA2 degradation assay (HiBiT-fusion HeLa cell line, 24 h, luminescence). The format is cell-based. On the procedure:
(§1) SMARCA2 and SMARCA4 Degradation Assay
(§2) Degradation of protein which is expressed from the SMARCA2 and SMARCA4 genes was monitored using engineered HiBiT-fusion HeLa cell lines from Promega. In brief, 384-well white opaque plates (Greiner) were seeded with SMARCA2-HiBiT or SMARCA4-HiBiT HeLa cells at 8,000 cells/well and incubated overnight at 37° C. to allow cell attachment. After overnight incubation, test compounds were added in a 10-point dilution series (typically 10 μM to 300 pM) using a TECAN D300e Digital Dispenser, and plates were subsequently incubated for 24 hours at 37° C. 24-hours post-treatment, protein levels were quantified with the addition of HiBiT lytic buffer, LgBiT protein, and HiBiT substrate, according to manufacturer's specifications. Plates were incubated on an orbital plate shaker for 10 minutes at room temperature. Resulting luminescent values were read out using a ClarioStar plate reader and used to construct dose-response curves and calculation of degradation DC50s (GraphPad Prism).
(§3) Activity of the tested compounds is provided in Table 4 below as follows: A=DC50<0.050 μM; B=0.05 μM<DC50<0.50 μM; C=<0.5 μM<DC50<5.0 μM; D=DC50>5.0 μM. For SMARCA2 and SMARCA4 degradation activity @1 μM, +++=>70%; ++=30-70%; +=<30%.

The target of test [2] is T2, SMARCA4-HiBiT HeLa cells (protein which is expressed from the SMARCA4 gene) (Homo sapiens, UniProt P51532).
T2 construct: protein which is expressed from the SMARCA2 and SMARCA4 genes; host or cells: HeLa (SMARCA4-HiBiT engineered line)
In words: SMARCA4 degradation assay (HiBiT-fusion HeLa cell line, 24 h, luminescence). The format is cell-based. On the procedure: as §1, §2, §3
In general terms: HiBiT is a short tag that completes a luciferase, so light tracks the accessible tagged protein.

T2 sequence (P51532 whole entry): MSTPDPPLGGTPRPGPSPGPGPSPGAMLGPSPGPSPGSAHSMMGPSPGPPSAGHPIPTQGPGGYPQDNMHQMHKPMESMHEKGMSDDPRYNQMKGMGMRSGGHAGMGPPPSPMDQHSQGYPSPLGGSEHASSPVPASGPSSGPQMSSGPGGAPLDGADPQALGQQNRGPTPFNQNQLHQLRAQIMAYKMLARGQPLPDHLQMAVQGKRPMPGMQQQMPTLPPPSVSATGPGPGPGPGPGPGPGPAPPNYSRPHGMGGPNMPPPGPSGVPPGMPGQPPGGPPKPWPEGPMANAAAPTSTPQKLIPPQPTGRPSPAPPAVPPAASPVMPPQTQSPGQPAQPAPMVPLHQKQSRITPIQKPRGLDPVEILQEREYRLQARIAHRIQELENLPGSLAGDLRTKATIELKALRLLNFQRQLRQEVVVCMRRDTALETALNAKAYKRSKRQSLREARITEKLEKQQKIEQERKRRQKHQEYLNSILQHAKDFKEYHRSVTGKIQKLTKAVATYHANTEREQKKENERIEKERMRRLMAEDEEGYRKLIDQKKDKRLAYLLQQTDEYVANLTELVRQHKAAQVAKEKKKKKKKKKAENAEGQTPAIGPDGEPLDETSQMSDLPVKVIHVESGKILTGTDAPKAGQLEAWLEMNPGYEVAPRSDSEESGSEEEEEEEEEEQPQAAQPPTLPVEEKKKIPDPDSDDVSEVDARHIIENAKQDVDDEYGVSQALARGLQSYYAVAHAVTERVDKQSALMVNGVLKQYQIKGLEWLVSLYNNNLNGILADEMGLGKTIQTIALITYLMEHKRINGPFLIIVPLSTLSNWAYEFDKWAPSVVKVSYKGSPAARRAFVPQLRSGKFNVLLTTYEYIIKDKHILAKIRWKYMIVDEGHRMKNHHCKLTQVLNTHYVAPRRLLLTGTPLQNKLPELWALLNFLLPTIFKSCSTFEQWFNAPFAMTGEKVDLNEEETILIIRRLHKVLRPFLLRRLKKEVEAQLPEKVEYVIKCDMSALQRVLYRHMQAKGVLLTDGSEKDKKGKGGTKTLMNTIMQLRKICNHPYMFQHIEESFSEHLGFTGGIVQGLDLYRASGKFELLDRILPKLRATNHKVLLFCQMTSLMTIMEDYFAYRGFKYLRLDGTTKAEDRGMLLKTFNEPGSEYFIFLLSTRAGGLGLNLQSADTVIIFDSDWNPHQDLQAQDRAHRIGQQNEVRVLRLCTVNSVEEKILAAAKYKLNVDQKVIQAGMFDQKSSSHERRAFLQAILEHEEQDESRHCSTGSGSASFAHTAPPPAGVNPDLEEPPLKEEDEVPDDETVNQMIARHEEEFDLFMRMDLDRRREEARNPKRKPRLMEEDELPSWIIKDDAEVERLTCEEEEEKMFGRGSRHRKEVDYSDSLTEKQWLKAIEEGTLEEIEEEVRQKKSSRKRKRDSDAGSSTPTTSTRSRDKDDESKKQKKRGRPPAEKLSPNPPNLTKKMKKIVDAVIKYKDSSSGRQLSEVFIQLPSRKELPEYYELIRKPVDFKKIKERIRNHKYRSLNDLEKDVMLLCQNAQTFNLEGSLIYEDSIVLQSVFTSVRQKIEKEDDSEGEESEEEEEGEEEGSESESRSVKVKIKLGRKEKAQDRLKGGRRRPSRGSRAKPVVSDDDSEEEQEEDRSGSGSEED
T1 sequence (P51531 whole entry): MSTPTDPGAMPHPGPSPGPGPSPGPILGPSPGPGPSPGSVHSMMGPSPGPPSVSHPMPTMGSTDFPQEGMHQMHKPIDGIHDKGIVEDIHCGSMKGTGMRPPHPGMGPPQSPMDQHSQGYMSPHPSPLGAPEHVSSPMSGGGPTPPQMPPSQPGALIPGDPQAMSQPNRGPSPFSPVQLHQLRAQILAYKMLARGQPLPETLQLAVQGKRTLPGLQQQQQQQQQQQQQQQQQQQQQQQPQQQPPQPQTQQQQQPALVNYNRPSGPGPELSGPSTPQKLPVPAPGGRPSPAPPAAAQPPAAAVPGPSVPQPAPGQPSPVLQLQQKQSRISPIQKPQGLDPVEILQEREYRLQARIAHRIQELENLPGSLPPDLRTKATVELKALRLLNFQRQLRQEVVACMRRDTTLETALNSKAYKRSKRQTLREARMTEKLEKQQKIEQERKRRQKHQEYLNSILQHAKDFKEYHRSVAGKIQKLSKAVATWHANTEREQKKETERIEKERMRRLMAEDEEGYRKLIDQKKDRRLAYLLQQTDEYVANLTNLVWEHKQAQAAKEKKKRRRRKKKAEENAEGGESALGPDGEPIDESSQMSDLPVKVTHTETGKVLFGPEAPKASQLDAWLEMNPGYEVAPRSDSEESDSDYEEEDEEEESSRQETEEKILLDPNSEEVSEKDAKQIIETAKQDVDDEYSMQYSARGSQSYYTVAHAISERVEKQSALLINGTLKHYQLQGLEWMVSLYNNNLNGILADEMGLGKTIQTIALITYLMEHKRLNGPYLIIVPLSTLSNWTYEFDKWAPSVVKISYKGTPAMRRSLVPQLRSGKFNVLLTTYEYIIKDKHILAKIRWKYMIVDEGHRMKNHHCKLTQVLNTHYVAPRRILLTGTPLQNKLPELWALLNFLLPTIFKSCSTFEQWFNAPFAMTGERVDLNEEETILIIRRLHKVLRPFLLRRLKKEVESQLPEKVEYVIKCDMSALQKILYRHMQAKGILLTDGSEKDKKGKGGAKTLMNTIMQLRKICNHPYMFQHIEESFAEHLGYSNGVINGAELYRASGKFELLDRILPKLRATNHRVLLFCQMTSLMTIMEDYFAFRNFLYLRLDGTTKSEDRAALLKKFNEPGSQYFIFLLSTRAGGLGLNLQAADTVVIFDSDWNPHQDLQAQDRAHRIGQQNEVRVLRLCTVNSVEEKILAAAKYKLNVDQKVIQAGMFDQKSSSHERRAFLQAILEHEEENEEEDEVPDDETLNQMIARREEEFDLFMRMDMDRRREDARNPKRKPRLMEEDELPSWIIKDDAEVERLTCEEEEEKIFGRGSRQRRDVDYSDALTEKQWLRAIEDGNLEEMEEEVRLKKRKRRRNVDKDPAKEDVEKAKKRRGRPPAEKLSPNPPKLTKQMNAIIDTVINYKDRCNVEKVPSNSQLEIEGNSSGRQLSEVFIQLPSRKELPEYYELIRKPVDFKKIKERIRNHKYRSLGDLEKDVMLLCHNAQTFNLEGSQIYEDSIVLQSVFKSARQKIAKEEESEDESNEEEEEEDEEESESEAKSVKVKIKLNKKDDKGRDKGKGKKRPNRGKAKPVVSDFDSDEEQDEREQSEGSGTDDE

What is called DC50 is the concentration giving 50% degradation. For orientation: inhibition means how much of the control response was suppressed. Take `CC1CN(c2cc(-c3ccccc3O)nnc2N)CCN1c1ccnc(C#CCNC(=O)c2cc3ncccn3n2)n1` (stereo in doubt) [Compound P-81, (R)-N-(3-(4-(4-(3-amino-6-(2-hydroxyphenyl)pyridazin-4-yl)-2-methylpiperazin-1-yl)pyrimidin-2-yl)prop-2-yn-1-yl)pyrazolo[1,5-a]pyrimidine-2-carboxamide]: in test [1], the DC50 lay within 50 to 500 nM and the “SMARCA2 % Degradation @ 1 μM” value is “++ (++=30-70%)”. In test [2], this compound registered a DC50 below 50 nM and an inhibition at 1 µM of 30 to 70%.
For the compound `Cc1cc(C(=O)NCC#Cc2nccc(N3CCN(c4cc(-c5ccccc5O)nnc4N)CC3)n2)no1` [Compound P-1, N-[3-(4-{4-[3-amino-6-(2-hydroxyphenyl)pyridazin-4-yl]piperazin-1-yl}pyrimidin-2-yl)prop-2-yn-1-yl]-5-methyl-1,2-oxazole-3-carboxamide], in test [1], the DC50 fell in the range of 50 to 500 nM and the “SMARCA2 % Degradation @ 1 μM” value is given as “++ (++=30-70%)”. In test [2], this compound gave a DC50 of 50 to 500 nM and an inhibition at 1 µM of 30 to 70%.
For the compound `CCc1cc(C(=O)NCC#Cc2nccc(N3CCN(c4cc(-c5ccccc5O)nnc4N)CC3)n2)nn1C` [Compound P-2, N-[3-(4-{4-[3-amino-6-(2-hydroxyphenyl)pyridazin-4-yl]piperazin-1-yl}pyrimidin-2-yl)prop-2-yn-1-yl]-5-ethyl-1-methyl-1H-pyrazole-3-carboxamide], in test [1], the DC50 was in the range of 50 to 500 nM and the “SMARCA2 % Degradation @ 1 μM” value is on record as “++ (++=30-70%)”. Further, in test [2], the DC50 was in the range of 50 to 500 nM and the inhibition at 1 µM lay in the range of 30 to 70%.
Regarding `Cc1oncc1C(=O)NCC#Cc1nccc(N2CCN(c3cc(-c4ccccc4O)nnc3N)CC2)n1` [Compound P-3, N-[3-(4-{4-[3-amino-6-(2-hydroxyphenyl)pyridazin-4-yl]piperazin-1-yl}pyrimidin-2-yl)prop-2-yn-1-yl]-5-methyl-1,2-oxazole-4-carboxamide], in test [1], the DC50 fell in the range of 50 to 500 nM and the “SMARCA2 % Degradation @ 1 μM” value is on record as “++ (++=30-70%)”. Moreover, in test [2], the DC50 was 50 to 500 nM and the inhibition at 1 µM lay within 30 to 70%.
With `Nc1nnc(-c2ccccc2O)cc1N1CCN(c2ccnc(C#CCNC(=O)c3cccnc3)n2)CC1` [Compound P-4, N-[3-(4-{4-[3-amino-6-(2-hydroxyphenyl)pyridazin-4-yl]piperazin-1-yl}pyrimidin-2-yl)prop-2-yn-1-yl]pyridine-3-carboxamide], in test [1], the DC50 lay in the range of 50 to 500 nM and the “SMARCA2 % Degradation @ 1 μM” value was “++ (++=30-70%)”. In addition, in test [2], the DC50 lay within 50 to 500 nM and the inhibition at 1 µM is below 30%.
With `Nc1nnc(-c2ccccc2O)cc1N1CCN(c2ccnc(C#CCNC(=O)c3cccnn3)n2)CC1` [Compound P-5, N-[3-(4-{4-[3-amino-6-(2-hydroxyphenyl)pyridazin-4-yl]piperazin-1-yl}pyrimidin-2-yl)prop-2-yn-1-yl]pyridazine-3-carboxamide], in test [1], the DC50 was in the range of 50 to 500 nM and the “SMARCA2 % Degradation @ 1 μM” value is “++ (++=30-70%)”. In test [2], this compound returned a DC50 of 50 to 500 nM and an inhibition at 1 µM below 30%.
Turning to `Cn1nc(C(=O)NCC#Cc2nccc(N3CCN(c4cc(-c5ccccc5O)nnc4N)CC3)n2)cc1C1CC1` [Compound P-6, N-[3-(4-{4-[3-amino-6-(2-hydroxyphenyl)pyridazin-4-yl]piperazin-1-y1}pyrimidin-2-yl)prop-2-yn-1-yl]-5-cyclopropyl-1-methyl-1H-pyrazole-3-carboxamide], in test [1], the DC50 lay in the range of 50 to 500 nM and the “SMARCA2 % Degradation @ 1 μM” value is on record as “++ (++=30-70%)”. In addition, in test [2], the DC50 was below 50 nM and the inhibition at 1 µM lay within 30 to 70%.
With `Cn1ccc(C(=O)NCC#Cc2nccc(N3CCN(c4cc(-c5ccccc5O)nnc4N)CC3)n2)n1` [Compound P-7, N-[3-(4-{4-[3-amino-6-(2-hydroxyphenyl)pyridazin-4-yl]piperazin-1-yl}pyrimidin-2-yl)prop-2-yn-1-yl]-1-methyl-1H-pyrazole-3-carboxamide], in test [1], the DC50 is 50 to 500 nM and the “SMARCA2 % Degradation @ 1 μM” value is “++ (++=30-70%)”. Further, in test [2], the DC50 was below 50 nM and the inhibition at 1 µM lay within 30 to 70%.
For `Cc1c(C(=O)NCC#Cc2nccc(N3CCN(c4cc(-c5ccccc5O)nnc4N)CC3)n2)nn(C)c1C` [Compound P-8, N-[3-(4-{4-[3-amino-6-(2-hydroxyphenyl)pyridazin-4-yl]piperazin-1-yl}pyrimidin-2-yl)prop-2-yn-1-yl]-1,4,5-trimethyl-1H-pyrazole-3-carboxamide], in that order: 50 to 500 nM, “++ (++=30-70%)”, below 50 nM and 30 to 70%.
In the same order, the values of `Nc1nnc(-c2ccccc2O)cc1N1CCN(c2ccnc(C#CCNC(=O)c3ccn(CC(F)(F)F)n3)n2)CC1` [Compound P-9, N-[3-(4-{4-[3-amino-6-(2-hydroxyphenyl)pyridazin-4-yl]piperazin-1-yl}pyrimidin-2-yl)prop-2-yn-1-yl]-1-(2,2,2-trifluoroethyl)-1H-pyrazole-3-carboxamidc] are 50 to 500 nM, “++ (++=30-70%)”, below 50 nM and 30 to 70%.
`Nc1nnc(-c2ccccc2O)cc1N1CCN(c2ccnc(C#CCNC(=O)c3ccn(C(F)F)n3)n2)CC1` [Compound P-10, N-[3-(4-{4-[3-amino-6-(2-hydroxyphenyl)pyridazin-4-yl]piperazin-1-yl}pyrimidin-2-yl)prop-2-yn-1-y1]-1-(difluoromethyl)-1H-pyrazole-3-carboxamide]: in test [1], the half-maximal degradation concentration (DC50) lay within 50 to 500 nM and the “SMARCA2 % Degradation @ 1 μM” value is “++ (++=30-70%)”. For the same compound, in test [2], the DC50 was below 50 nM and the inhibition at 1 µM lay within 30 to 70%.
Take `Nc1nnc(-c2ccccc2O)cc1N1CCN(c2ccnc(C#CCNC(=O)c3ccn(C4CC4)n3)n2)CC1` [Compound P-11, N-[3-(4-{4-[3-amino-6-(2-hydroxyphenyl)pyridazin-4-yl]piperazin-1-yl}pyrimidin-2-yl)prop-2-yn-1-y1]-1-cyclopropyl-1H-pyrazole-3-carboxamide]: in test [1], the DC50 was below 50 nM and the “SMARCA2 % Degradation @ 1 μM” value was “++ (++=30-70%)”. Besides, in test [2], the DC50 is below 50 nM and the inhibition at 1 µM is 30 to 70%.
In the case of `Cc1cc(C(=O)NCC#Cc2nccc(N3CCN(c4cc(-c5ccccc5O)nnc4N)CC3)n2)nn1C` [Compound P-12, N-(3-(4-(4-(3-amino-6-(2-hydroxyphenyl)pyridazin-4-yl)piperazin-1-yl)pyrimidin-2-yl)prop-2-yn-1-yl)-1,5-dimethyl-1H-pyrazole-3-carboxamide], in test [1], the 50% degradation concentration (DC50) lay within 50 to 500 nM and the “SMARCA2 % Degradation @ 1 μM” value is listed as “++ (++=30-70%)”. In test [2], this compound came in with a DC50 of 50 to 500 nM and an inhibition at 1 µM of 30 to 70%.
With `C[C@@H]1CCN(c2cc(-c3ccccc3O)nnc2N)CCN1c1ccnc(C#CCNC(=O)c2cc3ncccn3n2)n1` [Compound P-14, (R)-N-(3-(4-(4-(3-amino-6-(2-hydroxyphenyl)pyridazin-4-yl)-7-methyl-1,4-diazepan-1-yl)pyrimidin-2-yl)prop-2-yn-1-yl)pyrazolo[1,5-a]pyrimidine-2-carboxamide], in test [1], the DC50 was in the range of 50 to 500 nM and the “SMARCA2 % Degradation @ 1 μM” value was “+++ (+++=>70%)”. Also, in test [2], the DC50 fell in the range of 50 to 500 nM and the inhibition at 1 µM fell in the range of 30 to 70%.
Turning to `Nc1nnc(-c2ccccc2O)cc1N1CCCN(c2ccnc(C#CCNc3ncco3)n2)CC1` [Compound P-15, 2-(6-amino-5-(4-(2-(3-(oxazol-2-ylamino)prop-1-yn-1-yl)pyrimidin-4-yl)-1,4-diazepan-1-yl)pyridazin-3-yl)phenol], in test [1], the DC50 lay within 500 to 5000 nM and the “SMARCA2 % Degradation @ 1 μM” value was “++ (++=30-70%)”. In test [2], the DC50 is 500 to 5000 nM and the inhibition at 1 µM was below 30%.
In the case of `C[C@H]1CN(c2ccnc(C#CCNC(=O)c3cc4ncccn4n3)n2)C[C@H](C)N1c1cc(-c2ccccc2O)nnc1N` [Compound P-16, N-(3-(4-((3S,5S)-4-(3-amino-6-(2-hydroxyphenyl)pyridazin-4-y1)-3,5-dimethylpiperazin-1-yl)pyrimidin-2-yl)prop-2-yn-1-yl)pyrazolo[1,5-a]pyrimidine-2-carboxamide], in test [1], the DC50 lay within 500 to 5000 nM and the “SMARCA2 % Degradation @ 1 μM” value is recorded as “+ (+=<30%)”. In test [2], the DC50 was in the range of 500 to 5000 nM and the inhibition at 1 µM is below 30%.
With `NCC#Cc1nccc(N2CCCC3(CCN(c4cc(-c5ccccc5O)nnc4N)CC3)C2)n1` [Compound P-87, 2-(6-amino-5-(2-(2-(3-aminoprop-1-yn-1-yl)pyrimidin-4-yl)-2,9-diazaspiro[5.5]undecan-9-yl)pyridazin-3-yl)phenol], in test [1], the DC50 fell in the range of 500 to 5000 nM and the “SMARCA2 % Degradation @ 1 μM” value is “+ (+=<30%)”.
In the same order, the values of `NCC#Cc1nccc(N2CCC3C2CCCN3c2cc(-c3ccccc3O)nnc2N)n1` (centres unmarked) [Compound P-88, 2-(6-amino-5-(1-(2-(3-aminoprop-1-yn-1-yl)pyrimidin-4-yl)octahydro-4H-pyrrolo[3,2-b]pyridin-4-yl)pyridazin-3-yl)phenol] are above 5000 nM and “+ (+=<30%)”.
